Experimental data from ChEMBL document CHEMBL1681640, “Serendipitous discovery of a new class of agonists for the melanocortin 1 and 4 receptors and a new class of cyclophanes” (Bioorg Med Chem Lett, 2011).
Active and inactive are the calls of the source. No cut-off for these calls is given here.

How the values were obtained:
[1] = target: T1, Melanocyte-stimulating hormone receptor (Homo sapiens, UniProt Q01726); assay: Displacement of [125I]NDP-alpha-MSH from human MC1 receptor expressed in BHK cells; assay type: cell-based
Target sequence in this assay (Q01726 whole entry): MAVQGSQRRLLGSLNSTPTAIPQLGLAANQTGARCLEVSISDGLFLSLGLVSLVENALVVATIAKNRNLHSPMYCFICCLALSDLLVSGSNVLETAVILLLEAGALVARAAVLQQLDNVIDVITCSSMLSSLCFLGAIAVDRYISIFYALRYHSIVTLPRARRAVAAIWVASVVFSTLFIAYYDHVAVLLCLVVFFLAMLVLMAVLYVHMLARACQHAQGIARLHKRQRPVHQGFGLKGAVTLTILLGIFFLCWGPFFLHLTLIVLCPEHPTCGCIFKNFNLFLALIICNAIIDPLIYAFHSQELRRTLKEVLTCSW

[2] = target: T2, Melanocortin receptor 3 (Homo sapiens, UniProt P41968); assay: Displacement of [125I]NDP-alpha-MSH from human MC3 receptor expressed in BHK cells; assay type: cell-based
T2 sequence (P41968 whole entry): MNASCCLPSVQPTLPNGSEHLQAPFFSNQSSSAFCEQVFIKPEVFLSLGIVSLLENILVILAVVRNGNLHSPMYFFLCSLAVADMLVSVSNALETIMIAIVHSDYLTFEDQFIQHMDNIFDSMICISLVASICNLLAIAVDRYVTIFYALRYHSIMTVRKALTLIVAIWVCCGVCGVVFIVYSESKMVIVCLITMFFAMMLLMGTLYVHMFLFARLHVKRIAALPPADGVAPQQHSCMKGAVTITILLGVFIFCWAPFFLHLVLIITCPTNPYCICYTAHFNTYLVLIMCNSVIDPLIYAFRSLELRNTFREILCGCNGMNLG

[3] = target: T3, Melanocortin receptor 4 (Homo sapiens, UniProt P32245); assay: Displacement of [125I]NDP-alpha-MSH from human MC4 receptor expressed in BHK cells; assay type: cell-based
Target sequence in this assay (P32245 whole entry): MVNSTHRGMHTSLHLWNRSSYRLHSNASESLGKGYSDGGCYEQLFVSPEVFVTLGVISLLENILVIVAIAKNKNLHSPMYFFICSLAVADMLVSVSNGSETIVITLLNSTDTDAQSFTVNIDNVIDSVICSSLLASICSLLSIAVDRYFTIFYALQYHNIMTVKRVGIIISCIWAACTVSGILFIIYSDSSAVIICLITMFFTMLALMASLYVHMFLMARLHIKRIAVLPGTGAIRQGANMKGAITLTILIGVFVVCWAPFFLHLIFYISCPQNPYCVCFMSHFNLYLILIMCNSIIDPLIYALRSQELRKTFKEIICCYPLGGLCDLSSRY

[4] = target: T4, Melanocortin receptor 5 (Homo sapiens, UniProt P33032); assay: Displacement of [125I]NDP-alpha-MSH from human MC5 receptor expressed in BHK cells; assay type: cell-based
T4 sequence (P33032 whole entry): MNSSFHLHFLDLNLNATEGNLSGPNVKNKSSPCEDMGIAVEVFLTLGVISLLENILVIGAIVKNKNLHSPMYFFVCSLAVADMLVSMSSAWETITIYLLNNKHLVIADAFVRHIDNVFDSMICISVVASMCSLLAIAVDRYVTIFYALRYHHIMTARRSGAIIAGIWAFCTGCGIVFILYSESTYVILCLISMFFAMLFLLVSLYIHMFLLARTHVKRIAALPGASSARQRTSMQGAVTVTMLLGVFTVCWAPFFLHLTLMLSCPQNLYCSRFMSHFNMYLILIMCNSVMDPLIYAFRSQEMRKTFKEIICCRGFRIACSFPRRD

[5] = target: T1, Melanocyte-stimulating hormone receptor; assay: Agonist activity at human MC1 receptor expressed in BHK cells assessed as stimulation of agonist-induced cAMP accumulation; assay type: functional, cell-based
Target sequence in this assay (Q01726 whole entry): as the sequence (Q01726 whole entry) above

[6] = target: T1, Melanocyte-stimulating hormone receptor; assay: Agonist activity at human MC1 receptor expressed in BHK cells assessed as stimulation of agonist-induced cAMP accumulation relative to agonist; assay type: functional, cell-based
Target sequence in this assay (Q01726 whole entry, looked up): as the sequence (Q01726 whole entry) above

[7] = target: T2, Melanocortin receptor 3; assay: Agonist activity at human MC3 receptor expressed in BHK cells assessed as stimulation of agonist-induced cAMP accumulation; assay type: functional, cell-based
[8] = target: T3, Melanocortin receptor 4; assay: Agonist activity at human MC4 receptor expressed in BHK cells assessed as stimulation of agonist-induced cAMP accumulation; assay type: functional, cell-based
Target sequence in this assay (P32245 whole entry): as the sequence (P32245 whole entry) above

[9] = target: T3, Melanocortin receptor 4; assay: Agonist activity at human MC4 receptor expressed in BHK cells assessed as stimulation of agonist-induced cAMP accumulation relative to agonist; assay type: functional, cell-based
Target sequence in this assay (P32245 whole entry): as above

[10] = target: T4, Melanocortin receptor 5; assay: Agonist activity at human MC5 receptor expressed in BHK cells assessed as stimulation of agonist-induced cAMP accumulation; assay type: functional, cell-based
[11] = tested on: Rattus norvegicus; assay: Reduction in food intake in Sprague-Dawley rat at 0.1 to 1 mg/kg, ip for first 3 hrs; assay type: functional, organism-based
[12] = target: T3, Melanocortin receptor 4; assay: Inhibition of human MC4 receptor expressed in BHK cells in presence of SHU9119 receptor antagonist
Target sequence in this assay (P32245 whole entry, looked up): as the sequence (P32245 whole entry) above

| Compound | Ki [1] [nM] | Ki [2] [nM] | Ki [3] [nM] | Ki [4] [nM] | EC50 [5] [nM] | Emax [6] [%] | EC50 [7] [nM] | EC50 [8] [nM] | Emax [9] [%] | EC50 [10] [nM] | Activity [11] | inhibition [12] |
| --- | --- | --- | --- | --- | --- | --- | --- | --- | --- | --- | --- | --- |
| COCC(=O)N[C@H]1Cc2ccc(OC)c(c2)Cc2ccc(cc2)Oc2cccc(c2)CN(CCCN2CCN(CCCN)CC2)C1=O | 116 | 1180 | 392 | 388 | 16 | 83 | > 10000 | 466 | 61 | > 10000 | Active | Active |
| COCC(=O)N[C@H]1Cc2cc3c(c(c2)Cc2ccc(cc2)Oc2cccc(c2)CN(CCCN2CCN(CCCN)CC2)C1=O)OCOC3 | 328 | 4530 | 403 | 1530 | 12 | 85 | > 10000 | 697 | 98 | > 10000 | – | Active |
